Experimental data as given in ChEMBL document CHEMBL1687706, “Inhibition of human immunodeficiency virus type 1 replication in human cells by Debio-025, a novel cyclophilin binding agent” (Antimicrob Agents Chemother, 2008).
pIC50: −log10 of the molar value.

Key:
[1] = Cytotoxicity against CRFK; set-up: species or system Felis catus; settings: cat, CRFK cells; read-out: TC50 (the source's name)
[2] = system: Human immunodeficiency virus 1; assay: Antiviral activity against HIV1 subtype O BCF01 infected in human PBMC assessed as inhibition of viral replication by ELISA; assay type: functional, organism-based; settings: Human immunodeficiency virus 1, subtype O BCF01
Hepatitis B virus = assay: Antiviral activity against HBV infected in human hepAD38 cells assessed as inhibition of viral replication; assay type: functional, organism-based
Rattus norvegicus [3] = assay: Immunosuppressive activity in Sprague-Dawley rat KHL model assessed as percent cytotoxic T cells at 25 mg/kg, po administered once daily for 28 days by flow cytometry; assay type: functional, T-cell
cells = settings: Mus musculus, PBMC
[4] = system: Vesicular stomatitis virus; assay: Antiviral activity against VSV infected in human embryonic lung cells assessed as inhibition of viral replication; assay type: functional, organism-based
[5] = Cytotoxicity against human embryonic lung cells; assay type: cell-based; settings: read-out: TC50 (the source's name)
MT4 = assay: Cytotoxicity against human MT4 cells at 0.83 uM by MTT assay; assay type: cell-based; settings: mt4, 0.83 µM
Rattus norvegicus [6] = assay: Immunosuppressive activity in Sprague-Dawley rat […] model assessed as percent T-helper cells at 25 mg/kg, po administered once daily for 28 days by flow cytometry; assay type: functional
[7] = Cytotoxicity against human HepAD38 cells; assay type: cell-based; settings: read-out: TC50 (the source's name)

For C/C=C/C[C@@H](C)[C@@H](O)[C@H]1C(=O)N[C@@H](CC)C(=O)N(C)[C@H](C)C(=O)N(CC)[C@@H](C(C)C)C(=O)N[C@@H](C(C)C)C(=O)N(C)[C@@H](CC(C)C)C(=O)N[C@@H](C)C(=O)N[C@H](C)C(=O)N(C)[C@@H](CC(C)C)C(=O)N(C)[C@@H](CC(C)C)C(=O)N(C)[C@@H](C(C)C)C(=O)N1C [ALISPORIVIR], the CC50 [1] was 10.6 µM, the pIC50 [2] was 5.20 and the pIC50 (Hepatitis B virus) was 5.39. For the same compound, the Activity (Rattus norvegicus [3]) was 18%, the pIC50 (cells) was 6.09 and the pIC50 [4] was under 4.60. The CC50 [5] was 25 µM, the Activity (MT4) was “Non-toxic” and the Activity (Rattus norvegicus [6]) was 34.5%. The CC50 [7] was 16.4 µM.
